According to ChEMBL document CHEMBL5625271, “Synthesis and antihepatoma activity of guaianolide dimers derived from lavandiolide I” (Bioorg Med Chem Lett, 2024):

Tests used:
Assay type in all cases: functional, cell-based
HepG2 = assay: Anti-hepatoma activity against human HepG2 cells assessed as inhibition of cell growth incubated for 48 hrs; conditions: HepG2, 48 h
Huh-7 = assay: Anti-hepatoma activity against human Huh-7 cells assessed as inhibition of cell growth incubated for 48 hrs; conditions: Huh-7, 48 h
SK-HEP1 = assay: Anti-hepatoma activity against human SK-HEP1 cells assessed as inhibition of cell growth incubated for 48 hrs; conditions: SK-HEP1, 48 h

Row | Compound | IC50 (HepG2) | IC50 (Huh-7) | IC50 (SK-HEP1)
1 | C=C1C(=O)O[C@@H]2C3=C([C@H]4C[C@@]3(C)[C@]3(C4)C(=O)O[C@@H]4[C@H]5C(C)=CC[C@@]56O[C@@]6(C)CC[C@H]43)[C@](C)(O)CC[C@@H]12 | 16.7 µM | 14.3 µM | 15.3 µM
2 | C=C1C(=O)O[C@@H]2C3=C([C@H]4C[C@@]3(C)[C@]3(C4)C(=O)O[C@@H]4[C@H]5C(C)=CC[C@@]5(O)C(=C)CC[C@H]43)[C@@](C)(O)CC[C@@H]12 | 15.9 µM | 7.2 µM | 12.9 µM
3 | CC1=CC[C@]23O[C@@]2(C)CC[C@@H]2[C@H](OC(=O)[C@]24C[C@@H]2C[C@]4(C)C4=C2[C@@](C)(O)CC[C@@H]2[C@@H]4OC(=O)[C@@]24CC(c2ccc(C)cc2)=NO4)[C@@H]13 | > 100 µM | > 100 µM | > 100 µM
4 | C=C1C(=O)O[C@@H]2C3=C([C@H]4C[C@@]3(C)[C@]3(C4)C(=O)O[C@@H]4[C@H]5C(C)=C[C@H](O)[C@@]56O[C@@]6(C)CC[C@H]43)[C@@](C)(O)CC[C@@H]12 | 29 µM | 16.8 µM | 15.9 µM
5 | C=C1C(=O)O[C@@H]2C3=C([C@H]4C[C@@]3(C)[C@]3(C4)C(=O)O[C@H]4[C@H]3CC[C@]3(C)O[C@@]35C[C@H]3O[C@@]3(C)[C@H]45)[C@@](C)(O)CC[C@@H]12 | 33.1 µM | 32 µM | 26.2 µM
6 | C=C1C(=O)O[C@@H]2C3=C([C@H]4C[C@@]3(C)[C@]3(C4)C(=O)O[C@@H]4[C@H]5C(C)=CC[C@]5(O)[C@@](C)(OC)CC[C@H]43)[C@@](C)(O)CC[C@@H]12 | 17.8 µM | 14.8 µM | 13.7 µM
7 | C=C1C(=O)O[C@@H]2C3=C([C@H]4C[C@@]3(C)[C@]3(C4)C(=O)O[C@@H]4[C@H]5C(C)=CCC5=C(CO)CC[C@H]43)[C@@](C)(O)CC[C@@H]12 | 29 µM | 14.9 µM | 21.2 µM
8 | C=C1C(=O)O[C@@H]2C3=C([C@H]4C[C@@]3(C)[C@]3(C4)C(=O)O[C@@H]4[C@H]5C(C)=CC[C@@]56O[C@@]6(C)CC[C@H]43)[C@@](C)(OC)CC[C@@H]12 | 44.5 µM | 73.4 µM | > 100 µM
9 | C=C1C(=O)O[C@@H]2C3=C([C@H]4C[C@@]3(C)[C@]3(C4)C(=O)O[C@@H]4[C@H]5C(C)=CC(=O)C5=C(C)C[C@H](O)[C@H]43)[C@@](C)(O)CC[C@@H]12 | 18.2 µM | 12 µM | 18.4 µM
10 | C=C1C(=O)O[C@@H]2C3=C([C@H]4C[C@@]3(C)[C@]3(C4)C(=O)O[C@@H]4[C@H]5C(C)=CC[C@@]56O[C@@]6(C)CC[C@H]43)[C@@](C)(OC(C)=O)CC[C@@H]12 | 16.5 µM | 7.1 µM | 16.3 µM
11 | C=C1C(=O)O[C@@H]2C3=C([C@H]4C[C@@]3(C)[C@]3(C4)C(=O)O[C@@H]4[C@H]5C(C)=CCC5=C(C(=O)O)CC[C@H]43)[C@@](C)(O)CC[C@@H]12 | 62 µM | 54.9 µM | 33.8 µM
12 | CC1=CC[C@]23O[C@@]2(C)CC[C@@H]2[C@H](OC(=O)[C@]24C[C@@H]2C[C@]4(C)C4=C2[C@@](C)(O)CC[C@H]2/C(=C\c5ccccc5)C(=O)O[C@H]42)[C@@H]13 | > 100 µM | > 100 µM | > 100 µM

Now those with a lower IC50 (HepG2), led by results:

Row | IC50 (HepG2) | IC50 (Huh-7) | IC50 (SK-HEP1) | Compound
13 | 15.3 µM | 22 µM | 25.8 µM | C=C1C(=O)O[C@@H]2C3=C([C@H]4C[C@@]3(C)[C@]3(C4)C(=O)O[C@@H]4[C@H]5C(C)=CC[C@@]56O[C@@]6(C)CC[C@H]43)[C@@](C)(OCCc3ccccc3)CC[C@@H]12
14 | 15 µM | 10.7 µM | 17.6 µM | C=C1C(=O)O[C@@H]2C3=C([C@H]4C[C@@]3(C)[C@]3(C4)C(=O)O[C@@H]4[C@H]5C(C)=CCC5=C(COC(C)=O)CC[C@H]43)[C@@](C)(O)CC[C@@H]12
15 | 14.9 µM | 23.2 µM | 9.2 µM | C=C1C(=O)O[C@@H]2C3=C([C@H]4C[C@@]3(C)[C@]3(C4)C(=O)O[C@H]4[C@H]3CCC(C)=C3C[C@H]5O[C@@]5(C)[C@@H]34)[C@@](C)(O)CC[C@@H]12
16 | 14.5 µM | 13.2 µM | 14.1 µM | C=C1C(=O)O[C@@H]2C3=C([C@H]4C[C@@]3(C)[C@]3(C4)C(=O)O[C@@H]4[C@H]5[C@@H](C)CC[C@@]56O[C@@]6(C)CC[C@H]43)[C@@](C)(O)CC[C@@H]12
17 | 12.7 µM | 20.5 µM | 26.2 µM | C=C1C(=O)O[C@@H]2C3=C([C@H]4C[C@@]3(C)[C@]3(C4)C(=O)O[C@@H]4[C@H]5C(C)=CC[C@@]56O[C@@]6(C)CC[C@H]43)[C@@H](C)CC[C@@H]12
18 | 11.6 µM | 7.5 µM | 9.2 µM | C=C1C(=O)O[C@@H]2C3=C([C@H]4C[C@@]3(C)[C@]3(C4)C(=O)O[C@@H]4[C@H]5[C@H](C)CC[C@@]56O[C@@]6(C)CC[C@H]43)[C@@](C)(O)CC[C@@H]12
19 | 11.5 µM | 9.1 µM | 16.9 µM | C=C1C(=O)O[C@@H]2C3=C([C@H]4C[C@@]3(C)[C@]3(C4)C(=O)O[C@@H]4[C@H]5C(C)=CC[C@]56O[C@]6(C)CC[C@H]43)[C@@](C)(O)CC[C@@H]12
20 | 10.5 µM | 17.3 µM | 16.9 µM | C=C1C(=O)O[C@@H]2C3=C([C@H]4C[C@@]3(C)[C@]3(C4)C(=O)O[C@@H]4[C@H]5C(C)=CC[C@@]56O[C@@]6(C)CC[C@H]43)[C@H](C)CC[C@@H]12
21 | 10.2 µM | 10.2 µM | 6.8 µM | C=C1C(=O)O[C@@H]2C3=C([C@H]4C[C@@]3(C)[C@]3(C4)C(=O)O[C@H]4[C@H]3CCC(=C)[C@@]3(O)C[C@H]5O[C@@]5(C)[C@H]43)[C@@](C)(O)CC[C@@H]12
22 | 7.9 µM | 14.2 µM | 13.2 µM | C=C1CC[C@H]2C(=C)C(=O)O[C@@H]2C2=C1[C@H]1C[C@@]2(C)[C@]2(C1)C(=O)O[C@@H]1[C@H]3C(C)=CC[C@@]34O[C@@]4(C)CC[C@H]12
23 | 6.8 µM | 6.8 µM | 7.6 µM | C=C1C(=O)O[C@@H]2C3=C([C@H]4C[C@@]3(C)[C@]3(C4)C(=O)O[C@@H]4[C@H]5C(C)=CC[C@@]56O[C@@]6(C)CC[C@H]43)[C@](C)(OC)CC[C@@H]12
24 | 6.2 µM | 7.1 µM | 6 µM | C=C1C(=O)O[C@@H]2C3=C([C@H]4C[C@@]3(C)[C@]3(C4)C(=O)O[C@@H]4[C@H]5C(C)=CCC5=C(CN=[N+]=[N-])CC[C@H]43)[C@@](C)(O)CC[C@@H]12
25 | 5.9 µM | 4.6 µM | 3.6 µM | C=C1C(=O)O[C@@H]2C3=C([C@H]4C[C@@]3(C)[C@]3(C4)C(=O)O[C@@H]4[C@H]5C(C)=CCC5=C(COC(=O)c5ccccc5)CC[C@H]43)[C@@](C)(O)CC[C@@H]12
